# From US20240108632A1, “PHARMACEUTICAL COMPOSITION FOR ADMINISTRATION AS OPHTHALMIC DROP TO PATIENT REQUIRING OPTIC NERVE PROTECTION” (PINOTBIO, INC., priority 2020, published 2024)
# How the values were obtained:
# Solubility by pH = format: physicochemical; conditions: stirred 12 hours
# Description: 50 mL of pH 1 to 12 solution and tertiary purified water were taken precisely and placed in a 50 mL clear glass vial, and an excess amount (50 mg) of KR-67607 was weighed and added and stirred for 12 hours. Then, it was allowed to stand for 20 minutes to settle the undissolved excess of KR-67607, and the supernatant was taken and filtered through a 0.2 μm PVDF filter as a stock solution.
# The standard was prepared by accurately weighing 15 mg of KR-67607, placing it in a 50 mL volumetric flask, using diluent (0.02 M potassium dihydrogen phosphate aqueous solution:acetonitrile=50:50 (v/v)) to completely dissolve/mark KR-67607, and filtering the liquid through a 0.45 μm PVDF filter as the standard.
# The HPLC analysis conditions were as follows • Detector: ultraviolet-visible absorption spectrophotometer (measuring wavelength: 254 nm) • Column: 250×4.6 mm, 5μm, C18 packing column • Column temperature: 25±3° C. • Injection volume: 25 μL • Flow rate: 1 mL/min • Mobile Phase: Gradient
# [1] = Solubility by HP-β-CD concentration at pH adjustment; format: physicochemical
# Description: Various concentrations of HP-β-CD aqueous solutions were prepared by adding 1%, 2%, 3%, and 4% (w/v) of HP-β-CD to tertiary purified water (pH 5.5), pH 7.4 phosphate buffer, and 0.04 M NaOH aqueous solution (pH 12.5). An excess of KR-67607 was added to the above HP-β-CD solution and stirred for 24 hours, then the supernatant was collected and filtered through a 0.2 μm PVDF filter, and 1 mL was added to a 10 mL volumetric flask and labeled with methanol.
# For the standard solution, 50 mg of KR-67607 was accurately weighed and placed in a 50 mL volumetric flask and completely dissolved/stained with methanol. 1, 2, 4, 6, 8, 10 mL of the standard solution was accurately taken and placed in a 20 mL volumetric flask, and the one labeled with methanol was used as the standard.
# GFAP, TNFα and BAX mRNA = assay: RT-PCR of retinal tissue from ocular hypertension rabbits; format: in vivo, New Zealand White rabbit; conditions: after Example 33 dosing
# Description: Following Example 33, in order to separate the sample (eyeball) to observe the glaucoma treatment effect on the drug in addition to the change in intraocular pressure caused by the drug administration, the eyeball was enucleated and about 0.2 mL of the aqueous humor was collected, and then the retina (including some choroid) was collected. The collected aqueous humor and retina were placed in 1.5 mL polypropylene tubes pre-marked with sample information, frozen in a deep freezer (approximately −80° C.) until analysis, and delivered to the test site for analysis.
# RNA or proteins were extracted from the eyes and analyzed by RT-PCR and western blotting to compare the expression of genes and proteins that can confirm the glaucoma treatment effect or optic nerve protection effect.
# RNA was extracted from the isolated retinal tissue and analyzed by RT-PCR to compare the expression of genes that can confirm the glaucoma treatment effect or retinal protection effect. The tissues were lysed using TrizolTM Reagent (Invitrogen, CA, US) to extract the soluble RNA, and the RNA was precipitated by adding isopropanol (100%; Sigma-aldrich, MO, US).
# Subsequently, cDNA was synthesized from the isolated RNA using a cDNA synthesis kit (AccuPower RT Premix; Bioneer, KR) and used for RT-PCR. The primer information used for RT-PCR analysis is as follows.
# The synthesized DNA strands were then analyzed after separation on a 1.5% agarose gel using gene-specific primers (FIG. 28).
# [2] = tested on: cynomolgus macaque model of glaucoma; assay: Intraocular pressure in cynomolgus macaque model of glaucoma (laser trabeculoplasty); format: in vivo; conditions: for maximum decrease of IOP, glaucomatous eye: 2 hours after instillation
# Description: (§1) Three weeks before the first laser trabeculoplasty, IOP was measured via a tomometer (SPHPR-320-61), once per week for three weeks. The first laser trabeculoplasty was performed in one eye for each macaque. Two weeks later, laser trabeculoplasty was repeated in the same eye (Week 0).
# (§2) One week after the second laser trabeculoplasty (Week 1), IOP was measured and retinal nerve fiber layer (RNFL) thickness was measured via optical coherence tomography (OCT; RS3000 Advance, Nidek Co. Ltd., Gamagoori, Japan) (SPHPR- 320-58). The day after group assignment, the eyes were instilled with either vehicle, KR-67607 or brimonidine twice a day. On Day 1, the effect of treatment on IOP over time was measured before treatment and 1, 2, 4, and 8 hrs. after instillation. At the same time, blood samples were obtained. From the effects of dosing observed on Day 1, it was determined that 2 hrs. was a reasonable time time-to-test following instillation for subsequent observations.
# (§3) Intraocular pressures were obtained at Weeks 2, 3, 4, 5, 7 and 9. Optical coherence tomography and color fundus photography (CFP) were performed at Weeks 1, 3, 5, 7, and 9 (SPHPR-320-56).
# Following measurements at Week 9, G3 macaques was randomized into two groups based on IOP, and the effect of KR-67607 (1.5 mg/mL, 3.0 mg/mL) on IOP was evaluated.
# [3] = tested on: cynomolgus macaque model of glaucoma; assay: Funduscopy in cynomolgus macaque model of glaucoma; format: in vivo
# Description: as §1, §2, §3
# 11β-HSD1 = 11β-HSD1 (Homo sapiens, UniProt P28845); conditions: known; cited from earlier work
# 11β-HSD1, sequence (P28845 whole entry, species assumed): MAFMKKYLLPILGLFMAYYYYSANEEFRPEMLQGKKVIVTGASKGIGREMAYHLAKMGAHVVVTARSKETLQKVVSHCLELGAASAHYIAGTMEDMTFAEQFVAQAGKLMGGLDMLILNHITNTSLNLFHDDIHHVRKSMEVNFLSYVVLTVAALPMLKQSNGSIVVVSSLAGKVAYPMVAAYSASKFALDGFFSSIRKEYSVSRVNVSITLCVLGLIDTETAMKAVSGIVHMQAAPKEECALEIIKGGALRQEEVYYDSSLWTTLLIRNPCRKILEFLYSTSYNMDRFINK
compound,measurement,setting,value
"CC1CN(CC(=O)NC2C3CC4CC2CC(C(N)=O)(C4)C3)S(=O)(=O)N(c2c(Cl)cc(C(F)(F)F)cc2Cl)C1 [KR-67607, (1s, 3R,4s,5S,7s)-4-(2-(6-(2,6-dichloro-4-(trifluoromethyl)phenyl)-4-methyl-1,1-dioxido-1,2,6-thiadiazinan-2-yl)acetamido)adamantane-1-carboxamide]",Solubility,Solubility by pH; Purified water,18.83 µg/mL
same,Solubility,Solubility by pH; pH 1 solution,47.83 µg/mL
same,Solubility,Solubility by pH; pH 3 solution,46.08 µg/mL
same,Solubility,Solubility by pH; pH 5 solution,42.52 µg/mL
same,Solubility,Solubility by pH; pH 6 solution,43.61 µg/mL
same,Solubility,Solubility by pH; pH 7 solution,43.77 µg/mL
same,Solubility,Solubility by pH; pH 8 solution,41.95 µg/mL
same,Solubility,Solubility by pH; pH 9 solution,45.97 µg/mL
same,Solubility,Solubility by pH; pH 10 solution,44.53 µg/mL
same,Solubility,Solubility by pH; pH 12 solution,55.32 µg/mL
same,Solubility by HP-β-CD concentration,"[1]; HP-β-CD 1.0 % w/v, 0.04M NaOH aqueous solution (pH 12.5)",3160 µg/mL
same,Solubility by HP-β-CD concentration,"[1]; HP-β-CD 1.0 % w/v, phosphate buffer (pH 7.4)",2590 µg/mL
same,Solubility by HP-β-CD concentration,"[1]; HP-β-CD 1.0 % w/v, purified water (pH 5.5)",2550 µg/mL
same,Solubility by HP-β-CD concentration,"[1]; HP-β-CD 2.0 % w/v, 0.04M NaOH aqueous solution (pH 12.5)",5720 µg/mL
same,Solubility by HP-β-CD concentration,"[1]; HP-β-CD 2.0 % w/v, phosphate buffer (pH 7.4)",4290 µg/mL
same,Solubility by HP-β-CD concentration,"[1]; HP-β-CD 2.0 % w/v, purified water (pH 5.5)",4230 µg/mL
same,Solubility by HP-β-CD concentration,"[1]; HP-β-CD 3.0 % w/v, 0.04M NaOH aqueous solution (pH 12.5)",7900 µg/mL
same,Solubility by HP-β-CD concentration,"[1]; HP-β-CD 3.0 % w/v, phosphate buffer (pH 7.4)",6000 µg/mL
same,Solubility by HP-β-CD concentration,"[1]; HP-β-CD 3.0 % w/v, purified water (pH 5.5)",6000 µg/mL
same,Solubility by HP-β-CD concentration,"[1]; HP-β-CD 4.0 % w/v, 0.04M NaOH aqueous solution (pH 12.5)",9610 µg/mL
same,Solubility by HP-β-CD concentration,"[1]; HP-β-CD 4.0 % w/v, phosphate buffer (pH 7.4)",6790 µg/mL
same,Solubility by HP-β-CD concentration,"[1]; HP-β-CD 4.0 % w/v, purified water (pH 5.5)",6910 µg/mL
same,mRNA expression level of BAX in retinal tissues,"GFAP, TNFα and BAX mRNA",tended to decrease
same,mRNA expression level of GFAP in retinal tissues,"GFAP, TNFα and BAX mRNA",tended to decrease
same,mRNA expression level of TNFa in retinal tissues,"GFAP, TNFα and BAX mRNA",tended to decrease
same,"maximum decrease of IOP, contralateral normal eye","[2]; Day 1 dosing, 2 hours after dosing",did not decrease
same,"maximum decrease of IOP, glaucomatous eye",[2]; Day 1 dosing,9.2±4.1 mmHg
same,effect on IOP (Extra dosing),"[2]; KR-67607 1.5 mg/mL, after Week 9",did not affect
same,maximum decrease of IOP (Extra dosing),"[2]; KR-67607 3.0 mg/mL, 1 hour after instillation",12.0±2.8 mmHg
same,effect on trough IOP value,"[2]; glaucomatous eyes, repeated treatment twice a day, brimonidine tartrate 0.1%, KR-67607 1.5 mg/mL",did not significantly affect
same,"maximum decrease of IOP, normal eye",[2]; over weeks,did not decrease
same,"maximum decrease of IOP, glaucomatous eye",[2]; over weeks,10.4±2.2 mmHg
same,IOP-decreasing effect in glaucomatous eyes relative to brimonidine,[2]; summary,smaller than that of brimonidine
same,animals with small optic discs compared to G1 in the glaucomatous eyes,[3]; Week 5,four of six animals
same,animals with a small or lesser degree of cupping,[3]; Week 9,three animals
same,inhibitory activity against 11β-HSD1,11β-HSD1,good inhibitory activity
